From ChEMBL document CHEMBL1201862, “PubChem BioAssay data set” (2004)
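Values below derive from 48-hour exposures of cells grown in 96-well plates, with endpoints linearly interpolated between the two concentrations bracketing the appropriate inhibition level. Abbreviation: GI50, concentration required for 50% inhibition of growth.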 The source made the active and inactive calls. Rule as the data show it: active = GI50 up to about 1.1 µM and inactive = higher.

Assays:
Assay in all cases: inhibition of tumour cell growth, NCI panel, 48 h
CAKI-1 = tested on: CAKI-1
MDA-MB-231 = tested on: MDA-MB-231
RXF 393 = tested on: RXF 393
NCI-H460 = tested on: NCI-H460
M14 = tested on: M14
A549 = tested on: A549
SR = tested on: SR
UACC-62 = tested on: UACC-62
CCRF-CEM = tested on: CCRF-CEM
HOP-92 = tested on: HOP-92
786-0 = tested on: 786-0
SNB-75 = tested on: SNB-75
HOP-62 = tested on: HOP-62
HT-29 = tested on: HT-29
MDA-MB-435 = tested on: MDA-MB-435
HCC 2998 = tested on: HCC 2998
SF-295 = tested on: SF-295
Hs-578T = tested on: Hs-578T
BT-549 = tested on: BT-549
K562 = tested on: K562

Structure (SMILES) | GI50 (CAKI-1) | GI50 (MDA-MB-231) | GI50 (RXF 393) | GI50 (NCI-H460) | GI50 (M14) | GI50 (A549) | GI50 (SR) | GI50 (UACC-62) | GI50 (CCRF-CEM) | GI50 (HOP-92) | GI50 (786-0) | GI50 (SNB-75) | GI50 (HOP-62) | GI50 (HT-29) | GI50 (MDA-MB-435) | GI50 (HCC 2998) | GI50 (SF-295) | GI50 (Hs-578T) | GI50 (BT-549) | GI50 (K562)
O=S1(=O)CCN(c2ccccc2CC(c2c[nH]c3ccccc23)c2c[nH]c3ccccc23)CC1 | 9.16 µM (inactive) | 6.92 µM (inactive) | 7.03 µM (inactive) | 2.67 µM (inactive) | 4.35 µM (inactive) | 8.41 µM (inactive) | 3.08 µM (inactive) | 8.99 µM (inactive) | 1.99 µM (inactive) | 5.37 µM (inactive) | 6.03 µM (inactive) | 5.02 µM (inactive) | 13.6 µM (inactive) | 4.59 µM (inactive) | 5.62 µM (inactive) | 3.64 µM (inactive) | 8.02 µM (inactive) | 7.71 µM (inactive) | 11.9 µM (inactive) | 3.08 µM (inactive)
COc1ccc2c(c1)CC1Cc3cc(OC)c(OC)cc3CN1CC2 (stereo not given) | 35.5 µM (inactive) | 42.6 µM (inactive) | 21 µM (inactive) | 23 µM (inactive) | 48.2 µM (inactive) | 42.4 µM (inactive) | 17.7 µM (inactive) | 25.2 µM (inactive) | 19.5 µM (inactive) | 11.6 µM (inactive) | 27.2 µM (inactive) | 29.7 µM (inactive) | 71.3 µM (inactive) | 10.1 µM (inactive) | 37.9 µM (inactive) | 33.4 µM (inactive) | 32.7 µM (inactive) | 53 µM (inactive) | 32.6 µM (inactive) | 17.5 µM (inactive)
COc1ccc(/C=C(\C#N)c2nc(-c3cc4ccccc4oc3=O)cs2)cc1 | 76 µM (inactive) | 14.8 µM (inactive) | 21.1 µM (inactive) | 21.4 µM (inactive) | 24.8 µM (inactive) | 32.3 µM (inactive) | > 100 µM (inactive) | 22.7 µM (inactive) | > 100 µM (inactive) | 18.3 µM (inactive) | 19.3 µM (inactive) | 23.2 µM (inactive) | 15.2 µM (inactive) | 41.3 µM (inactive) | 37.8 µM (inactive) | 32.6 µM (inactive) | 21.9 µM (inactive) | 24.6 µM (inactive) | 14.2 µM (inactive) | 58.5 µM (inactive)
c1cc2n(n1)CCN2 | 740 µM (inactive) | > 1500 µM (inactive) | 1390 µM (inactive) | 820 µM (inactive) | 486 µM (inactive) | 1050 µM (inactive) | 733 µM (inactive) | 374 µM (inactive) | 186 µM (inactive) | 1590 µM (inactive) | 1120 µM (inactive) | 3400 µM (inactive) | 3720 µM (inactive) | 3130 µM (inactive) | 3940 µM (inactive) | 1690 µM (inactive) | 348 µM (inactive) | > 1470 µM (inactive) | 4840 µM (inactive) | 2000 µM (inactive)
Cc1ccc([N+](=O)[O-])cc1S(=O)(=O)Nc1ccc(C(=O)/C=C/c2ccccc2)cc1 | 22.2 µM (inactive) | 16.9 µM (inactive) | 11.4 µM (inactive) | 18.1 µM (inactive) | 20 µM (inactive) | 23.3 µM (inactive) | 22.1 µM (inactive) | 13.2 µM (inactive) | 20 µM (inactive) | 15.9 µM (inactive) | 16.7 µM (inactive) | 17.3 µM (inactive) | 17.7 µM (inactive) | 25.4 µM (inactive) | 19.6 µM (inactive) | 17.7 µM (inactive) | 20.3 µM (inactive) | 50.6 µM (inactive) | 17.7 µM (inactive) | 4.79 µM (inactive)
CC1(C)Oc2ccccc2OC1O (stereo not given) | > 100 µM (inactive) | > 100 µM (inactive) | > 100 µM (inactive) | > 100 µM (inactive) | > 100 µM (inactive) | > 100 µM (inactive) | > 100 µM (inactive) | > 100 µM (inactive) | > 100 µM (inactive) | > 100 µM (inactive) | > 100 µM (inactive) | > 100 µM (inactive) | > 100 µM (inactive) | > 100 µM (inactive) | > 100 µM (inactive) | > 100 µM (inactive) | > 100 µM (inactive) | > 100 µM (inactive) | > 100 µM (inactive) | > 100 µM (inactive)
CC1=C(O)C(=O)C=C2C1=CC=C1[C@@]2(C)CC[C@@]2(C)C3C[C@@H](C)C(=O)[C@@H](O)[C@]3(C)CC[C@]12C (stereo not given in full) | 1.47 µM (inactive) | 2 µM (inactive) | 1.9 µM (inactive) | 5.58 µM (inactive) | 1.64 µM (inactive) | 13.9 µM (inactive) | 0.3 µM (active) | 1.79 µM (inactive) | 0.33 µM (active) | 2.03 µM (inactive) | 0.946 µM (active) | 8.38 µM (inactive) | 6.38 µM (inactive) | 1.97 µM (inactive) | 2.24 µM (inactive) | 2.95 µM (inactive) | 4.55 µM (inactive) | 4.18 µM (inactive) | 1.75 µM (inactive) | 0.891 µM (active)
O=C(NO)c1cccc(OCc2ccc(Br)cc2)c1 | 3.11 µM (inactive) | 12.3 µM (inactive) | 3.52 µM (inactive) | 3.06 µM (inactive) | 2.79 µM (inactive) | 5.28 µM (inactive) | 2.29 µM (inactive) | 4.15 µM (inactive) | 1.91 µM (inactive) | 7.8 µM (inactive) | 2.92 µM (inactive) | 4.29 µM (inactive) | 4.97 µM (inactive) | 6.98 µM (inactive) | 5.73 µM (inactive) | 7.52 µM (inactive) | 4.79 µM (inactive) | 13.1 µM (inactive) | 7.71 µM (inactive) | 3.6 µM (inactive)
